A word on the IC50: it is the concentration that gives 50% inhibition.

The source of these data is patent US9056923B2, “Mimetic peptides derived from collagen type IV and their use for treating angiogenesis- and lymphagiogenesis-dependent diseases” (THE JOHNS HOPKINS UNIVERSITY, priority 2010, dated 2015).

The test system of experiment [1] is microvascular endothelial cells (MEC). Nature of the experiment: MEC adhesion assay. It counts as cell-based. The protocol:
Similar to the migration assays, the inhibition activity of the peptide in cellular adhesion was assessed using the RT-CIM technology. In this case, 25,000 cells/well were plated in 16 wells E-plates (Roche, Basel Switzerland) in the presence or absence of the peptide. The adhesion was monitored over time (3 hours) by measuring changes in the electrical impedance, which is a direct measure of the cells adhering on the electrodes. […] Assays were performed in at least two independent replicates and each replicate was performed using two experimental duplicates.

Another experiment concerns MDA-MB-231 tumors. Briefly: MRI of tumor vascular volume and permeability surface-area product. The note with it: vs control. The format is in vivo, mice. The protocol: MRI of vascular volume and permeability surface-area product (PSP) were determined as follows. Mice with volume-matched tumors were treated with SP2024 or vehicle and imaged 24 h post treatment. The mice were anesthetized and the tail vein was catheterized before placing the animal in the spectrometer. All imaging studies were performed on a 4.7 T Bruker Avance spectrometer, as previously described (Raman et al., 2006; Bhujwalla et al., 2001) using a home-built solenoid coil placed around the tumor. Briefly, multislice relaxation rate (1/T1) maps were obtained by a saturation recovery method combined with fast T1 SNAPSHOT-FLASH imaging (flip angle of 10°, echo time of 2 ms). […] The detectable areas of vascular volume and permeability as well as absolute values of vascular volume and permeability were analyzed. […] Volume fractions of the regions were determined using the histogram analysis of the volume data. […] Statistical significance (p<0.05) within each experiment using the independent replicates was assessed using standard statistical assessments such as Student's t-test and ANOVA accompanied by Dunnett's test if different sets of data were compared to one group.

The next experiment deals with MDA-MB-231 xenograft. Nature of the experiment: MDA-MB-231 orthotopic breast tumor xenograft. It counts as in vivo, SCID mice. On the procedure: For primary tumor inhibition studies, 1−2×10^6 tumor cells were injected into 4-6 wk old female SCID mice. After the tumors reached a size of 100 mm^3 the animals were randomized into groups of 10 animals each. The animals were treated with vehicle, SP2012, SP2000, or SP2024. The peptides were administered subcutaneously daily. Dosing was continued for 3 or 4 weeks and tumor sizes were measured every 3 days using calipers. The tumor volume was estimated using the formula V=a^2b/2 where a and b are the smaller and larger diameters.
For the tumor xenograft assay, animals were housed and treated according to the approved animal protocol of the Institutional Care and Use Committee at Johns Hopkins Medical Institution (JHMI). Orthotopic breast tumors were initiated in SCID mice using MDA-MB-231 cells. 2×10^6 cells per 100 μL aliquot of single cell suspension were injected in the breast mannary fat pad. Tumors reached volumes of 75 mm^3 to 100 mm^3 in approximately 14-21 days. Mice were randomized and arranged in groups (8 mice per group) with similar tumor volumes (no statistical difference among averages) and treatment was commenced. Peptides were administered once per day intraperitoneally (i.p.) at doses of 10 mg/kg (subcutaneous delivery was also tested with certain peptides). Paclitaxel was administered at 5 mg/kg once a week, and to maintain the daily treatment regime PBS was administered on the non-treatment days. Tumors were measured every fourth day using calipers and the tumor volume was calculated using the formula V=ab^2/2, where a is the larger diameter and b is the smaller diameter.

The subject of experiment [2] is HUVEC. Nature of the experiment: HUVEC tube formation assay on Matrigel. It counts as cell-based, human. The procedure, abridged: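 HUVEC (15,000/well) plated on polymerized Matrigel in complete media with or without peptide for 19 h at 37 °C. Tube networks imaged by microscopy, one random field per well, in triplicate wells across at least two independent experiments.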

Experiment [3] has as its system HUVEC. It counts as cell-based, human. An outline of the steps: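 Adhesion of 25,000 cells per well, with or without peptide, followed by real-time electrical impedance on electrode plates over 3 hours. At least two independent replicates, each run in duplicate.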
In experiment [4] the test system is MDA-MB-231-luc-D3H2LN cells. Briefly: Tail vein assay of cancer metastasis (lung metastasis). It counts as in vivo. The note with it: luciferase-transfected MDA-MB-231 cells in nude mice, IVIS. The protocol:
The tail vein assay of cancer metastasis protocol from Current Protocols of Cell Biology was used to measure the effect of SP2024 on lung metastasis (Elkin and Vlodaysky, 2001). […] of 5×10^5 cells/mL luciferase-transfected MDA-MB-231-luc-D3H2LN (Caliper Biosciences) cell suspension was slowly injected into nude mice (nude mice are easier to image because of their lack of fur). Two hours before cell inoculation vehicle or 10 mg/kg SP2024 were administered subcutaneously on a daily basis. Bioluminescence to detect metastasis was measured by IVIS imaging (Caliper Biosciences) via IP injection of 150 mg/kg D-luciferin.

Ends that are not written are not given here.

For LRRFSTMPFMFININNVINF-NH2 [SP2024], the “inhibition of adhesion of MEC” value in experiment [1] was “quite active”. Also, in the experiment on MDA-MB-231 tumors, the relative vascular volume entry was “reduced relative vascular volume” and the “tumor permeability-surface area product” value is “reduced tumor permeability-surface area product”. In addition, the “suppression of tumor growth” value in the experiment on MDA-MB-231 xenograft (MDA-MB-231 xenograft in mice, 10 mg/kg daily) is “inhibited tumor growth significantly over the control”. Also, in the experiment with MDA-MB-231 xenograft (mice), the MDA-MB-231 xenograft inhibition result is “Active”. Also, the “Tube formation Inhibition (100 uM)” value with HUVEC [2] (100 uM peptide) was “Complete”. In addition, in the experiment on HUVEC [2] (Yes/No summary), the “Activity in Tube formation” value was “Yes”. The substance also gave an IC50 with HUVEC [3] (3 h) of 2350 ± 1300 nM. In the experiment on HUVEC [3] (HUVEC, 100 uM peptide), the “Adhesion Inhibition (100 uM)” value came to 94.45%. The “Activity in Adhesion” value in the experiment with HUVEC [3] (HUVEC, Yes/No summary, active = inhibitory potential greater than 30%) is on record as “Yes”. For the same substance, the lung metastasis result in experiment [4] is “inhibits lung metastasis”.
